Publication PMC6385203, “Mutations in the palm domain disrupt modulation of acid-sensing ion channel 1a currents by neuropeptides” (Scientific Reports, 2019)
Peptide text beside a SMILES is read from it.

Target: T1, ASIC1a F302A (Homo sapiens, UniProt P78348, F302A)
T1 construct: expressed in transfected cells; host or cells: Xenopus laevis oocytes injected with cRNA
T1 sequence (P78348 1-528 F302A): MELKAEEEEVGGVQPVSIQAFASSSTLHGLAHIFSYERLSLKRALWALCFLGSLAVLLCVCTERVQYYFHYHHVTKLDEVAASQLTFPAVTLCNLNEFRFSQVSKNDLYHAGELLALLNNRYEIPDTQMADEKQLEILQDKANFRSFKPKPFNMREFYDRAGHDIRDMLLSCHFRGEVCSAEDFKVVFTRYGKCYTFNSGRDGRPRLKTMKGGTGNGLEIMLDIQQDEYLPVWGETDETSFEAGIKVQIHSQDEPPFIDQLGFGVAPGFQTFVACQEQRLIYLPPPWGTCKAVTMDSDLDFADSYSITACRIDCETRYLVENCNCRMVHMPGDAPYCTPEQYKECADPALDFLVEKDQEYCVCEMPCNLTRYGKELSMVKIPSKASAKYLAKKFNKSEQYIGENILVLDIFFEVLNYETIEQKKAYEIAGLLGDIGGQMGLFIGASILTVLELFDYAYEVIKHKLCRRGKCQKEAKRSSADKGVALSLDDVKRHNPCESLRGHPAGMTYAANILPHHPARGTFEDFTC
Experiment: Isust/Ipeak, TEVC in Xenopus oocytes
Format: cell-based
Conditions: pH5, n = 8–10, mean ± SEM, read-out: EC50 of FRRFa-mediated sustained current induction
Description: To scan the pocket and predicted entrance area with mutagenesis, we chose the residues with a potential to form hydrophobic (Ile312, Val187), aromatic (Phe 257, Phe301, Phe302) or electrostatic (Glu254, Asp303, Ser199, Asp253, Glu315) interactions with the peptide. For this analysis, we used mutation to Ala, and complemented the scan with mutation to Cys and subsequent chemical modification only for a selected residue. […] Phe302 is part of a loop connecting palm and thumb domains in the close neighbourhood of the thumb base. The observed increased Isust/Ipeak ratio of F302A (Fig. 4b,e) could simply be due to a better accessibility of the cavity of the putative RFa binding site in the thumb base, because Phe302 has a larger side chain than has Ala to which it was mutated. To test this hypothesis, we mutated Phe302 to Cys and exposed the mutant to the sulfhydryl reagent trimethylammonium-methyl methanethiosulfonate ([…]; 1 mM during 3 min) before the exposure to FRRFa. […]
Electrophysiological measurements were performed 1–2 days after cRNA injection. Ion currents were recorded using two-electrode voltage-clamp at a holding potential of −60 mV with a Dagan TEV-200 amplifier (Minneapolis, MN). […] The amplitude of the sustained current was measured in the last two seconds of the pH5 perfusion. […]

## N=C(N)NCCC[C@H](NC(=O)[C@H](CCCNC(=N)N)NC(=O)[C@@H](N)Cc1ccccc1)C(=O)N[C@@H](Cc1ccccc1)C(N)=O [FRRFa, Phe-Arg-Arg-Phe-amide] (H-FRRF-NH2)
  EC50: 11 ± 2 µM
